Reference: patent US8507537B2, “Trifluromethoxyphenyl-substituted tetramic acid derivatives pesticides and/or herbicides” (Bayer CropScience AG, priority 2006, dated 2013)

Legend:
Assay type in all cases: in vivo
Summer wheat = experiment: Greenhouse container trials with cereals, use of safeners (post-emergence herbicidal effect on crop)
Experimental: (§1) Post-Emergence Herbicidal Effect
Seeds of monocotyledonous and dicotyledonous weed plants and crop plants are placed in sandy loam soil in wood fibre pots or in plastic pots and are covered with earth and cultivated in a greenhouse and also, during the vegetation period, outdoors, outside of the greenhouse, under good growth conditions. 2 to 3 weeks after sowing, the trial plants are treated at the one- to three-leaf stage. The test compounds, formulated as wettable powders (WP) or liquids (EC), are sprayed onto the plants and the soil surface in various dosages, with a water application rate of 300 l/ha (converted) and with addition of wetting agent (0.2% to 0.3%). […]
(§2) If the testing is also to look at whether safeners can improve the tolerance of the crop plants for test substances, the following options are used for the application of the safener: • seeds of the crop plants are dressed with the safener substance prior to sowing (the amount of safener is stated as a percentage, based on the seed weight) • crop plants are sprayed with the safener, with a defined application rate per hectare, prior to application of the test substances (typically 1 day before the test substances are applied) • the safener is applied together with the test substance in the form of a tank mix (the amount of safener is reported in g/ha or as a proportion relative to the herbicide).
(§3) By comparing the effect of test substances on crop plants which have been treated with safener and without safener it is possible to assess the effect of the safener substance.
(§4) Greenhouse Container Trials with Cereals
(§5) Mefenpyr 1 Day Prior to Herbicide Application

Summer barley = experiment: as above; conditions: without safener; for Summer barley observed (%) herbicidal effect: 10 days after application; for Summer barley observed (%): 28 days after application
Experimental: as §1
Seeds of monocotyledonous and dicotyledonous weed plants and crop plants are placed in sandy loam soil in wood fibre pots or in plastic pots and are covered with earth and cultivated in a greenhouse and also, during the vegetation period, outdoors, outside of the greenhouse, under good growth conditions. 2 to 3 weeks after sowing, the trial plants are treated at the one- to three-leaf stage. The test compounds, formulated as wettable powders (WP) or liquids (EC), are sprayed onto the plants and the soil surface in various dosages, with a water application rate of 300 l/ha (converted) and with addition of wetting agent (0.2% to 0.3%). 3 to 4 weeks after the trial plants have been treated, the effect of the products is rated visually in comparison to untreated controls (herbicidal effect in percent: 100% effect=plants have died, 0% effect=like control plants).
as §2, §3, §4, §5

[1] = tested on: cotton aphid (Aphis gossypii); experiment: Activity boost through ammonium/phosphonium salts, Aphis gossypii test
Experimental: (§6) Solvent: 7 parts by weight of dimethylformamide
(§7) Emulsifier: 2 parts by weight of alkylaryl polyglycol ether
(§8) To produce a suitable preparation of active compound, 1 part by weight of active compound is mixed with the stated amounts of solvent and emulsifier, and the concentrate is diluted with emulsifier-containing water to the desired concentration. For application with ammonium salts or phosphonium salts these are added in a concentration of 1000 ppm a.i. to the spray liquor.
(§9) Cotton plants (Gossypium hirsutum) heavily infested by the cotton aphid (Aphis gossypii) are sprayed to runoff with the preparation of active compound at the desired concentration.
(§10) After the desired period of time, the kill in % is determined. 100% means that all aphids have been killed; 0% means that none of the aphids have been killed.

[2] = tested on: green peach aphid (Myzus persicae); experiment: Activity boost through ammonium/phosphonium salts in combination with penetration promoters, Myzus persicae test; conditions: 20 ppm active compound
Experimental: Activity Boost Through Ammonium/Phosphonium Salts in Combination with Penetration Promoters
as §6, §7
(§11) To produce a suitable preparation of active compound, 1 part by weight of active compound is mixed with the stated amounts of solvent and emulsifier, and the concentrate is diluted with water to the desired concentration. For application with ammonium salts or phosphonium salts and penetration promoters (rapeseed oil methyl ester 500 EW) these are in each case added in a concentration of 1000 ppm to the spray liquor.
Bell pepper plants (Capsicum annuum) heavily infested by the green peach aphid (Myzus persicae) are sprayed to runoff with the preparation of active compound at the desired concentration. After the desired time, the kill in % is determined. 100% means that all of the animals have been killed; 0% means that no animals have been killed.

[3] = tested on: green peach aphid (Myzus persicae); experiment: Activity boost through ammonium/phosphonium salts, Myzus persicae test; conditions: 20 ppm active compound
Experimental: Activity Boost Through Ammonium/Phosphonium Salts
as §6, §7
as §8, with “with” for “with emulsifier-containing”
Bell pepper plants (Capsicum annuum) which are heavily infested by the Green peach aphid (Myzus persicae) are treated with the active compound preparation of the desired concentration by spraying to runoff point. After the desired period of time, the kill in % is determined. 100% means that all animals have been killed; 0% means that none of the animals have been killed.

[4] = tested on: cotton aphid (Aphis gossypii); experiment: Activity boost through ammonium/phosphonium salts in combination with penetration promoters, Aphis gossypii test; conditions: 4 ppm active compound
Experimental: as §6, §7
as §11, with “diluted with emulsifier-containing water to” for “diluted with water to”, “1000 ppm a.i. to the” for “1000 ppm to the”
as §9, §10

[5] = tested on: rice brown planthopper (Nilaparvata lugens); experiment: Nilaparvata lugens test (NILALU hydroponic treatment); conditions: concentration of 500 ppm after 7 d
Experimental: NILALU Hydroponic Treatment
• 78 parts by weight of acetone • 1.5 parts by weight of dimethylformamide Emulsifier: • 0.5 part by weight of alkylaryl polyglycol ether
To produce a suitable preparation of active compound, 1 part by weight of active compound is mixed with the stated amounts of solvents and emulsifier, and the concentrate is diluted with emulsifier-containing water to the desired concentration.
The active compound preparation is pipetted into water. The stated concentration refers to the amount of active compound per volume unit of water (mg/l=ppm); the infection with the rice brown planthopper (Nilaparvata lugens) is then carried out.
After the desired period of time, the effect in % is determined. 100% means that all rice planthoppers have been killed; 0% means that none of the rice planthoppers have been killed.

[6] = 20 ppm active compound, +AS (1000 ppm)
[7] = 20 ppm active compound, without AS
[8] = +RME + AS (in each case 1000 ppm)

CCOC1CCCC2(C1)NC(=O)C(c1c(C)cc(C)cc1OC(F)(F)F)=C2OC(C)=O (single isomer, unassigned) [(I-b-24)]
Summer wheat observed (%) herbicidal effect (Summer wheat; 12.5 g of a.i./ha, 10 days after application, without safener): 30% | Summer wheat observed (%) herbicidal effect (Summer wheat; 25 g of a.i./ha, 10 days after application, without safener): 40% | Summer wheat observed (%) herbicidal effect (Summer wheat; 50 g of a.i./ha, 10 days after application, without safener): 40% | Summer wheat observed (%) herbicidal effect (Summer wheat; 50 g of a.i./ha, 28 days after application, without safener): 20% | Summer wheat observed (%) herbicidal effect (Summer wheat; 100 g of a.i./ha, 10 days after application, without safener): 40% | Summer wheat observed (%) herbicidal effect (Summer wheat; 100 g of a.i./ha, 28 days after application, without safener): 20% | Summer barley observed (%) herbicidal effect (Summer barley; 12.5 g of a.i./ha): 10% | Summer barley observed (%) herbicidal effect (Summer barley; 25 g of a.i./ha): 20% | Summer barley observed (%) herbicidal effect (Summer barley; 50 g of a.i./ha): 30% | Summer barley observed (%) herbicidal effect (Summer barley; 100 g of a.i./ha): 30%

COC1CCC2(CC1)NC(=O)C(c1c(C)cc(C)cc1OC(F)(F)F)=C2OC(C)=O (single isomer, unassigned) [(I-b-25)]
Summer wheat observed (%) herbicidal effect (Summer wheat; 100 g of a.i./ha, 10 days after application, without safener (table of I-b-25)): 20%

CCOC1CCC2(CC1)NC(=O)C(c1c(Br)cc(OC(F)(F)F)cc1Br)=C2O (single isomer, unassigned) [I-a-9]
Kill rate/% after 6 days [1, 6]: 85% | Kill rate/% after 6 days [1, 7]: 65%

COC1CCC2(CC1)NC(=O)C(c1c(Cl)cc(OC(F)(F)F)cc1Cl)=C2O (single isomer, unassigned) [I-a-29]
Kill rate/% after 6 days ([1]; 4 ppm active compound, +AS (1000 ppm)): 70% | Kill rate/% after 6 days ([1]; 4 ppm active compound, without AS): 5% | Kill rate/% after 6 days [1, 6]: 85% | Kill rate/% after 6 days [1, 7]: 70% | Kill rate/% after 6 days ([2]; +AS (1000 ppm)): 70% | Kill rate/% after 6 days ([2]; +RME (1000 ppm)): 95% | Kill rate/% after 6 days [2, 8]: 100% | Kill rate/% after 6 days ([2]; without additive): 0%

COC1CCC2(CC1)NC(=O)C(c1c(Br)cc(OC(F)(F)F)cc1Br)=C2O (single isomer, unassigned) [I-a-32]
Kill rate/% after 6 days ([3]; +AS (1000 ppm)): 85% | Kill rate/% after 6 days ([3]; without AS): 0% | Kill rate/% after 6 days ([4]; +AS (1000 ppm)): 30% | Kill rate/% after 6 days ([4]; +RME (1000 ppm)): 70% | Kill rate/% after 6 days [4, 8]: 80% | Kill rate/% after 6 days ([4]; without additive): 5%

COC1CCC2(CC1)NC(=O)C(c1c(C)cc(OC(F)(F)F)cc1Cl)=C2O (single isomer, unassigned) [I-a-39]
Kill rate/% after 6 days ([3]; +AS (1000 ppm)): 40% | Kill rate/% after 6 days ([3]; without AS): 10%

COC1CCC2(CC1)NC(=O)C(c1c(C)cc(C)cc1OC(F)(F)F)=C2O (single isomer, unassigned) [I-a-49]
Summer wheat observed (%) (Summer wheat; 10 days after application, 25 g of a.i./ha, without safener): 10% | Summer wheat observed (%) (Summer wheat; 10 days after application, 50 g of a.i./ha, without safener): 20% | Summer wheat observed (%) (Summer wheat; 10 days after application, 100 g of a.i./ha, without safener): 40%

COC1CCC2(C1)NC(=O)C(c1c(C)cc(C)cc1OC(F)(F)F)=C2O (single isomer, unassigned) [I-a-50]
Summer wheat observed (%) (Summer wheat; 28 days after application, 12.5 g of a.i./ha, without safener): 10% | Summer wheat observed (%) (Summer wheat; 28 days after application, 25 g of a.i./ha, without safener): 40% | Summer wheat observed (%) (Summer wheat; 28 days after application, 50 g of a.i./ha, without safener): 60% | Summer wheat observed (%) (Summer wheat; 28 days after application, 100 g of a.i./ha, without safener): 70% | Summer barley observed (%) (Summer barley; 12.5 g of a.i./ha): 8% | Summer barley observed (%) (Summer barley; 25 g of a.i./ha): 30% | Summer barley observed (%) (Summer barley; 50 g of a.i./ha): 50% | Summer barley observed (%) (Summer barley; 100 g of a.i./ha): 60%

O=C1NC2(CCOCC2)C(O)=C1c1cc(OC(F)(F)F)ccc1Br [I-a-4]
efficacy [5]: ≥ 80%
